Source: ChEMBL document CHEMBL1201862, “PubChem BioAssay data set” (2004)
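Tested at 5 concentrations; 48 h exposure; 96-well plates; endpoints linearly interpolated, else capped at highest concentration. GI50 = concentration required for 50% inhibition of growth.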 Activity calls are given as the source filed them. No stated cut-off is given here; in the data, active = GI50 up to about 1.1 µM and inactive = higher. Square brackets hold non-standard residues; d marks the D form. Peptide text beside a SMILES is read from it. * marks the point of attachment. Boc = CC(C)(C)OC(=O)*; OBn = c1ccc(CO*)cc1

Key:
Test in all cases: NCI anticancer screen, dose series, 48 h
DU-145 = test system: DU-145
K562 = test system: K562
MCF7 = test system: MCF7
NCI-H522 = test system: NCI-H522
NCI-H226 = test system: NCI-H226
EKVX = test system: EKVX
IGROV-1 = test system: IGROV-1
OVCAR-3 = test system: OVCAR-3
CAKI-1 = test system: CAKI-1
SF-268 = test system: SF-268
HOP-62 = test system: HOP-62
RPMI-8226 = test system: RPMI-8226
UACC-62 = test system: UACC-62
UO-31 = test system: UO-31
SNB-75 = test system: SNB-75
SK-MEL-2 = test system: SK-MEL-2
RXF 393 = test system: RXF 393
SW-620 = test system: SW-620
UACC-257 = test system: UACC-257
HOP-92 = test system: HOP-92
SK-MEL-28 = test system: SK-MEL-28
COLO 205 = test system: COLO 205
PC-3 = test system: PC-3
SK-OV-3 = test system: SK-OV-3
SN12C = test system: SN12C
Malme-3M = test system: Malme-3M
HCC 2998 = test system: HCC 2998
SF-539 = test system: SF-539
HT-29 = test system: HT-29
HCT-15 = test system: HCT-15
OVCAR-8 = test system: OVCAR-8
MDA-MB-435 = test system: MDA-MB-435
786-0 = test system: 786-0
SNB-19 = test system: SNB-19
MDA-MB-231 = test system: MDA-MB-231
CCRF-CEM = test system: CCRF-CEM
OVCAR-5 = test system: OVCAR-5
Hs-578T = test system: Hs-578T
TK-10 = test system: TK-10
M14 = test system: M14
KM12 = test system: KM12
SR = test system: SR
MOLT-4 = test system: MOLT-4
HCT-116 = test system: HCT-116
BT-549 = test system: BT-549
NCI-H460 = test system: NCI-H460
U-251 = test system: U-251
SK-MEL-5 = test system: SK-MEL-5
NCI-H23 = test system: NCI-H23
NCI/ADR-RES = test system: NCI/ADR-RES
T47D = test system: T47D
MDA-N = test system: MDA-N
OVCAR-4 = test system: OVCAR-4
HL-60 = test system: HL-60
A549 = test system: A549
LOX IMVI = test system: LOX IMVI
ACHN = test system: ACHN
SF-295 = test system: SF-295

## C[C@]12CC[C@H]3[C@@H](CCC4=C[C@@H](N5CCCC5)CC[C@@]43C)[C@@H]1C/C(=C\c1ccncc1)[C@@H]2O
DU-145
  GI50: 15.9 µM (inactive)
K562
  GI50: 3.24 µM (inactive)
MCF7
  GI50: 12.8 µM (inactive)
NCI-H522
  GI50: 10.3 µM (inactive)
NCI-H226
  GI50: 15.6 µM (inactive)
EKVX
  GI50: 15.7 µM (inactive)
IGROV-1
  GI50: 20.6 µM (inactive)
OVCAR-3
  GI50: 16.4 µM (inactive)
CAKI-1
  GI50: 28.8 µM (inactive)
SF-268
  GI50: 16.5 µM (inactive)
HOP-62
  GI50: 4.68 µM (inactive)
RPMI-8226
  GI50: 4.79 µM (inactive)
UACC-62
  GI50: 15.8 µM (inactive)
UO-31
  GI50: 4.92 µM (inactive)
SNB-75
  GI50: 14.3 µM (inactive)
SK-MEL-2
  GI50: 16.4 µM (inactive)
RXF 393
  GI50: 5.16 µM (inactive)
SW-620
  GI50: 13.4 µM (inactive)
UACC-257
  GI50: 6.19 µM (inactive)
HOP-92
  GI50: 15.9 µM (inactive)
SK-MEL-28
  GI50: 7.31 µM (inactive)
COLO 205
  GI50: 6.32 µM (inactive)
PC-3
  GI50: 13.6 µM (inactive)
SK-OV-3
  GI50: 18 µM (inactive)
SN12C
  GI50: 14.1 µM (inactive)
Malme-3M
  GI50: 13.6 µM (inactive)
HCC 2998
  GI50: 5.07 µM (inactive)
SF-539
  GI50: 9.35 µM (inactive)
HT-29
  GI50: 0.631 µM (active)
HCT-15
  GI50: 8.43 µM
OVCAR-8
  GI50: 24.9 µM (inactive)
MDA-MB-435
  GI50: 10.3 µM (inactive)
786-0
  GI50: 2.86 µM (inactive)
SNB-19
  GI50: 14.5 µM (inactive)
MDA-MB-231
  GI50: 13.9 µM (inactive)
CCRF-CEM
  GI50: 0.445 µM (active)
OVCAR-5
  GI50: 18 µM (inactive)
Hs-578T
  GI50: 13.8 µM (inactive)
TK-10
  GI50: 13.2 µM (inactive)
M14
  GI50: 2.39 µM (inactive)
KM12
  GI50: 9.57 µM (inactive)
SR
  GI50: 3.16 µM (inactive)
MOLT-4
  GI50: 7.73 µM (inactive)
HCT-116
  GI50: 7.91 µM (inactive)
BT-549
  GI50: 18.3 µM (inactive)
NCI-H460
  GI50: 11.6 µM (inactive)
U-251
  GI50: 12.6 µM (inactive)
SK-MEL-5
  GI50: 12 µM (inactive)
NCI-H23
  GI50: 15.5 µM (inactive)
NCI/ADR-RES
  GI50: 17.6 µM (inactive)
T47D
  GI50: 16.4 µM (inactive)
MDA-N
  GI50: 11.4 µM (inactive)
OVCAR-4
  GI50: 18 µM (inactive)
HL-60
  GI50: 16 µM (inactive)
A549
  GI50: 12.3 µM (inactive)
LOX IMVI
  GI50: 8.57 µM (inactive)
ACHN
  GI50: 17 µM (inactive)
SF-295
  GI50: 4.91 µM (inactive)

## C=CCC1(c2ccc(OC)cc2)C=CC(=O)CC1 (stereo unspecified)
DU-145
  GI50: > 100 µM (inactive)
K562
  GI50: 40.2 µM (inactive)
MCF7
  GI50: > 100 µM (inactive)
NCI-H522
  GI50: 77.1 µM (inactive)
NCI-H226
  GI50: > 100 µM (inactive)
EKVX
  GI50: > 100 µM (inactive)
IGROV-1
  GI50: > 100 µM (inactive)
OVCAR-3
  GI50: > 100 µM (inactive)
CAKI-1
  GI50: > 100 µM (inactive)
SF-268
  GI50: > 100 µM (inactive)
HOP-62
  GI50: > 100 µM (inactive)
UACC-62
  GI50: 68.7 µM (inactive)
UO-31
  GI50: > 100 µM (inactive)
SNB-75
  GI50: 19.4 µM (inactive)
RXF 393
  GI50: 94 µM (inactive)
SW-620
  GI50: > 100 µM (inactive)
UACC-257
  GI50: > 100 µM (inactive)
HOP-92
  GI50: 44.9 µM (inactive)
SK-MEL-28
  GI50: > 100 µM (inactive)
COLO 205
  GI50: > 100 µM (inactive)
PC-3
  GI50: 77.3 µM (inactive)
SK-OV-3
  GI50: > 100 µM (inactive)
SN12C
  GI50: > 100 µM (inactive)
HCC 2998
  GI50: > 100 µM (inactive)
SF-539
  GI50: > 100 µM (inactive)
HT-29
  GI50: > 100 µM (inactive)
HCT-15
  GI50: 72.3 µM
OVCAR-8
  GI50: > 100 µM (inactive)
MDA-MB-435
  GI50: 66.4 µM (inactive)
786-0
  GI50: > 100 µM (inactive)
SNB-19
  GI50: > 100 µM (inactive)
MDA-MB-231
  GI50: 92.7 µM (inactive)
CCRF-CEM
  GI50: 24.3 µM (inactive)
OVCAR-5
  GI50: > 100 µM (inactive)
Hs-578T
  GI50: 28.5 µM (inactive)
TK-10
  GI50: > 100 µM (inactive)
M14
  GI50: > 100 µM (inactive)
KM12
  GI50: > 100 µM (inactive)
SR
  GI50: 44.3 µM (inactive)
MOLT-4
  GI50: 28.6 µM (inactive)
HCT-116
  GI50: > 100 µM (inactive)
BT-549
  GI50: 70.6 µM (inactive)
NCI-H460
  GI50: > 100 µM (inactive)
U-251
  GI50: 52.4 µM (inactive)
SK-MEL-5
  GI50: > 100 µM (inactive)
NCI-H23
  GI50: > 100 µM (inactive)
NCI/ADR-RES
  GI50: 33.2 µM (inactive)
T47D
  GI50: > 100 µM (inactive)
MDA-N
  GI50: 65.8 µM (inactive)
OVCAR-4
  GI50: > 100 µM (inactive)
HL-60
  GI50: 38.9 µM (inactive)
A549
  GI50: > 100 µM (inactive)
LOX IMVI
  GI50: > 100 µM (inactive)
ACHN
  GI50: > 100 µM (inactive)
SF-295
  GI50: > 100 µM (inactive)

## C[C@@H](NC(=O)CNC(=O)OC(C)(C)C)C(=O)N[C@@H](Cc1ccccc1)C(=O)OCc1ccccc1 (Boc-Gly-[dA]-Phe-OBn)
DU-145
  GI50: > 100 µM (inactive)
K562
  GI50: 23.1 µM (inactive)
MCF7
  GI50: > 100 µM (inactive)
NCI-H522
  GI50: 26.3 µM (inactive)
NCI-H226
  GI50: 51.1 µM (inactive)
EKVX
  GI50: 97.7 µM (inactive)
IGROV-1
  GI50: 67.9 µM (inactive)
CAKI-1
  GI50: > 100 µM (inactive)
SF-268
  GI50: 89.1 µM (inactive)
UACC-62
  GI50: 34 µM (inactive)
UO-31
  GI50: 51.2 µM (inactive)
SNB-75
  GI50: 43.9 µM (inactive)
SK-MEL-2
  GI50: 26.7 µM (inactive)
RXF 393
  GI50: 32 µM (inactive)
SW-620
  GI50: 61.7 µM (inactive)
UACC-257
  GI50: 33.7 µM (inactive)
HOP-92
  GI50: 17.8 µM (inactive)
SK-MEL-28
  GI50: 20.1 µM (inactive)
COLO 205
  GI50: 18.2 µM (inactive)
PC-3
  GI50: 49 µM (inactive)
SK-OV-3
  GI50: > 100 µM (inactive)
SN12C
  GI50: > 100 µM (inactive)
Malme-3M
  GI50: 16.2 µM (inactive)
SF-539
  GI50: > 100 µM (inactive)
HT-29
  GI50: 90.4 µM (inactive)
HCT-15
  GI50: > 100 µM
OVCAR-8
  GI50: > 100 µM (inactive)
MDA-MB-435
  GI50: 32.4 µM (inactive)
786-0
  GI50: 84.7 µM (inactive)
SNB-19
  GI50: > 100 µM (inactive)
MDA-MB-231
  GI50: 37.1 µM (inactive)
CCRF-CEM
  GI50: 19.5 µM (inactive)
OVCAR-5
  GI50: > 100 µM (inactive)
Hs-578T
  GI50: 22.3 µM (inactive)
TK-10
  GI50: > 100 µM (inactive)
M14
  GI50: 19.8 µM (inactive)
KM12
  GI50: > 100 µM (inactive)
SR
  GI50: 19.5 µM (inactive)
MOLT-4
  GI50: 15 µM (inactive)
HCT-116
  GI50: 47.3 µM (inactive)
BT-549
  GI50: > 100 µM (inactive)
U-251
  GI50: 71.8 µM (inactive)
SK-MEL-5
  GI50: 22.8 µM (inactive)
NCI-H23
  GI50: > 100 µM (inactive)
NCI/ADR-RES
  GI50: > 100 µM (inactive)
T47D
  GI50: 63.4 µM (inactive)
MDA-N
  GI50: 36.7 µM (inactive)
OVCAR-4
  GI50: > 100 µM (inactive)
HL-60
  GI50: 35.1 µM (inactive)
A549
  GI50: > 100 µM (inactive)
LOX IMVI
  GI50: 20.6 µM (inactive)
ACHN
  GI50: 57.9 µM (inactive)
SF-295
  GI50: > 100 µM (inactive)
